Columns and labels:
PI3K p110α/p85 = molecular target: T1, PI3K p110α/p85 (Homo sapiens, UniProt P42336); experiment: PI3K assay ([γ33P]ATP, PtdIns/PtdSer coated plates); format: biochemical; conditions: 2 μM ATP, 1 hour at RT; read-out: IC50 (PI3Kα)
T1 construct: made in house
Procedure: Recombinant PI3K p110α/p85 was prepared in-house. Phosphatidylinositol (PtdIns), phosphotidylserine (PtdSer) and all other unspecified chemicals were purchased from Sigma-Aldrich. [γ^33P]ATP and Optiphase scintillant were obtained from Perkin Elmer.
Assays were performed in a final assay volume of 25 μL in 384-well Maxisorp plates (Nunc). Compounds were tested at 8 concentrations in 3-fold serial dilution, generally starting from 10 μM. Maxisorp plates were coated with 20 μL/well of a 1:1 mixture of PtdIns and PtdSer [0.1 mg/mL each dissolved in chloroform:ethanol (3:7)] and left overnight in a fume hood at room temperature (RT) to dry.
The enzyme reaction was created by pipetting 5 μL/well of compound (in 2.5% DMSO), 10 μL/well of enzyme (0.5 μg/mL p110α+1 μg/mL p85), and 10 μL/well of 5 μM ATP with 5 μCi/mL [γ^33P]ATP in assay buffer (final concentrations: 0.2 μg/mL p110α, 2 μM ATP, […] [γ^33P]ATP in 1× assay buffer: 100 mM Tris-HCl pH 7.0, 200 mM NaCl, 8 mM MgCl2). The reaction was incubated for 1 hour at RT and terminated with 30 μL/well of 50 mM EDTA solution. The plate was then washed twice with TBS, dried, and added with 30 μL/well of scintillant before it was counted in a MicroBeta Trilux.

mTOR = mTOR (Homo sapiens, UniProt P42345); experiment: mTOR assay (phosphorylation of 4eBP1, [γ33P]-ATP filter plate); format: biochemical; conditions: 10 μM ATP, 1 hour at room temperature
Procedure: Truncated mTOR kinase and His-tagged 4eBP1 were produced in-house. [γ^33P]-ATP was purchased from Amersham (GE Healthcare). All chemicals, unless otherwise stated, were from Sigma-Aldrich.
Phosphorylation assays were initially performed in a final volume of 20 μL in 384-well polypropylene plate (Greiner). Compounds were typically tested over the range from 100 μM to 0.006 μM, in 8 step dilutions, in duplicate. 10 μL/well of 2× Enzyme-Substrate solution (1.5 μg/mL mTOR, 40 μg/mL 4eBP1 in 1× assay buffer: 10 mM Hepes pH 7.5, 50 mM NaCl and 10 mM MnCl2) were first added to the sample plate containing 1 μL/well of test compound in neat DMSO. The reaction was initiated by adding 10 μL/well of 20 μM ATP solution (final assay concentration 10 μM ATP and 0.4 μCi/well of [γ^33P]-ATP). After 1 hour incubation at room temperature, the reaction was terminated with 40 μL/well of 20 mM EDTA/1 mM ATP solution.
50 μL/well of the stopped reaction mix was then transferred to 384-well MultiScreenHTS-PH filter plate (Millipore) pre-added with 50 μL/well of 1% phosphoric acid. The plate was washed 4 times with 120 μL/well of 0.5% phosphoric acid via vacuum filtration. Finally, 10 μL/well of Optiphase™ SuperMix liquid scintillation cocktail (Perkin Elmer) was added. After minimum 1 hour of incubation, counting was performed in a Wallac MicroBeta TriLux scintillation counter using coincidence counting mode with crosstalk correction.

T1 sequence (P42336 whole entry): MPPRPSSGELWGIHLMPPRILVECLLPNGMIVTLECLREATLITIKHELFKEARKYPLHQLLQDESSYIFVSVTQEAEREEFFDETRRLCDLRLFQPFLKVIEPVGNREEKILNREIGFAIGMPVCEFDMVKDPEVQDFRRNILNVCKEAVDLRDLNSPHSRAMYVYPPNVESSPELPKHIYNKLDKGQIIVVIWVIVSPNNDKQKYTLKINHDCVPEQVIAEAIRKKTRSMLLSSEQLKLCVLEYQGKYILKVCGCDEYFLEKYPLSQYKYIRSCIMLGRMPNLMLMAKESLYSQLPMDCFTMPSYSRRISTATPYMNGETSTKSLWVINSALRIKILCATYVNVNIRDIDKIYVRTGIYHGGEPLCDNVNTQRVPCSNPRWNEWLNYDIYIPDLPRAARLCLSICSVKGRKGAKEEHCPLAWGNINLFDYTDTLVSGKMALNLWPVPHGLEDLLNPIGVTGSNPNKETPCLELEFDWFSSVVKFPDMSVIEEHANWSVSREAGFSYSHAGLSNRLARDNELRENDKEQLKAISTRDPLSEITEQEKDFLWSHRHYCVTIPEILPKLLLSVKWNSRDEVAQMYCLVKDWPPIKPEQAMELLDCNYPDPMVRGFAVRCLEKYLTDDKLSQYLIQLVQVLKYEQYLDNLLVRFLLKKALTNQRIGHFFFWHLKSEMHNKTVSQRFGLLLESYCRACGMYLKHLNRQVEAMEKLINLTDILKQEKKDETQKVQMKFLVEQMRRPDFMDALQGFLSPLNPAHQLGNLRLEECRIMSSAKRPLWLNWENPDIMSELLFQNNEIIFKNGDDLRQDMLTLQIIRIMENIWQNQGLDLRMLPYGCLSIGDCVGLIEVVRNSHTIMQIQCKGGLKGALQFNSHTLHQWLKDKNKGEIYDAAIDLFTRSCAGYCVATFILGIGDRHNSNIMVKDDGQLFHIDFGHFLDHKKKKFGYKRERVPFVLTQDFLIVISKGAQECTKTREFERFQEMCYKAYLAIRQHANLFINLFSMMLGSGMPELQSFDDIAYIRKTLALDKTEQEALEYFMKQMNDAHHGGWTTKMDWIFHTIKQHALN
T1 sequence (P27986 whole entry partner): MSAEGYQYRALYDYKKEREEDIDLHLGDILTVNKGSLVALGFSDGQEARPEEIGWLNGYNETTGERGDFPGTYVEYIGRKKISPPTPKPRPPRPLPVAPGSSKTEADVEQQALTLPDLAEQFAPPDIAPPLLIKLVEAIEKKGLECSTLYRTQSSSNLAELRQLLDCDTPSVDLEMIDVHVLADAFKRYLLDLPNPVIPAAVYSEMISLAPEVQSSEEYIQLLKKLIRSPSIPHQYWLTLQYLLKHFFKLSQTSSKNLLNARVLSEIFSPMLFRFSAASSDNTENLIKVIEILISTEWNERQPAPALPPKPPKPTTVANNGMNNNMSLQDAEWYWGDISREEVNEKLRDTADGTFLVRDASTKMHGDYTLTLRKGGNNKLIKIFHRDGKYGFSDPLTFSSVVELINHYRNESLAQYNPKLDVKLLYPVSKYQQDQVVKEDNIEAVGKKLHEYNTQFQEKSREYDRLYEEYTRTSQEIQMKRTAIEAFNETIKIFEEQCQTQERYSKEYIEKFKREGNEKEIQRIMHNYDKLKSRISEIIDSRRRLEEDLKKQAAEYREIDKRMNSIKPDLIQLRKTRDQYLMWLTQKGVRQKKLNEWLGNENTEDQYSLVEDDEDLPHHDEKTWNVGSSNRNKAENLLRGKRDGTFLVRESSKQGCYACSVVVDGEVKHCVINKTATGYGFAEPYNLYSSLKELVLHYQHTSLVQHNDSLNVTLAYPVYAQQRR
Sequence of mTOR (P42345 1382-2549 limits assumed): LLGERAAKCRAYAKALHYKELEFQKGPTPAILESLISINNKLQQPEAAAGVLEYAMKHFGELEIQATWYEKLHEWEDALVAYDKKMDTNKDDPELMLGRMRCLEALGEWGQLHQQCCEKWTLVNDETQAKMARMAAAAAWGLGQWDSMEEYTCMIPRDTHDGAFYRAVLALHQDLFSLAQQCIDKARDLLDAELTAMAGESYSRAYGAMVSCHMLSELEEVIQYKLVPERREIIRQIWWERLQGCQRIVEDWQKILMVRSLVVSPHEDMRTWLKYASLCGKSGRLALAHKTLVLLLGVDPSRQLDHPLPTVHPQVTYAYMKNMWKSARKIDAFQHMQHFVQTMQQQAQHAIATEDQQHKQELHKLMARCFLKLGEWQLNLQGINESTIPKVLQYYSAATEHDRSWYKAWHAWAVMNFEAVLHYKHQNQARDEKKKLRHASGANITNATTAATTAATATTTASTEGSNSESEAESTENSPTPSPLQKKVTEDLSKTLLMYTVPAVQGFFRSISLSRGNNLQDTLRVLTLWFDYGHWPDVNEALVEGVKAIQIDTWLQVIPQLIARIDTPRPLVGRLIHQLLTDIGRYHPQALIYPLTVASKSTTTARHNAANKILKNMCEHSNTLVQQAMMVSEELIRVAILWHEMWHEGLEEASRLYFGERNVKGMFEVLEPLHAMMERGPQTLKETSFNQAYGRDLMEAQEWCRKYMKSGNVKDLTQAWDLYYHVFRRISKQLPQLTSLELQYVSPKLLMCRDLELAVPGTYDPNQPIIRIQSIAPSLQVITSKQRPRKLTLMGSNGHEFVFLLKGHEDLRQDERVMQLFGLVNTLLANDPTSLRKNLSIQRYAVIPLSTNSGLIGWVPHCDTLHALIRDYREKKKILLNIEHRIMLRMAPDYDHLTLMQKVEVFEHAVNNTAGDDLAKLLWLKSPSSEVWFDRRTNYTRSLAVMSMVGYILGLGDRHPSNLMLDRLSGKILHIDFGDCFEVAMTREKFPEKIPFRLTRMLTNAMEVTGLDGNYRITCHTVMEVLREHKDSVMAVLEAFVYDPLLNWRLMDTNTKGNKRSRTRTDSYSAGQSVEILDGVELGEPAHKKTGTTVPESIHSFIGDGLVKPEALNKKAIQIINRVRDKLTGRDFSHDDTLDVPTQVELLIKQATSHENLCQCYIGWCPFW

Row | Structure (SMILES) | IC50 (PI3K p110α/p85) | IC50 (mTOR)
1 | c1nc2cc(-c3nc(N4CCOCC4)nc4c3ncn4CC3CC3)ccc2[nH]1 [Compound 59] | < 1000 nM | 1000 to 5000 nM
2 | CC(C)Cn1cnc2c(-c3cccc(O)c3)nc(N3CCOCC3)nc21 [Compound 60] | < 1000 nM | < 1000 nM
3 | CC1CCC(n2cnc3c(-c4cccc(O)c4)nc(N4CCOCC4)nc32)CC1 (centres unmarked) [Compound 61] | < 1000 nM | < 1000 nM
4 | CC(C)(C)OC(=O)N1CCC(n2cnc3c(-c4cccc5[nH]ccc45)nc(N4CCOCC4)nc32)C1 (centres unmarked) [Compound 62] | < 1000 nM | 1000 to 5000 nM
5 | c1cc2[nH]nnc2cc1-c1nc(N2CCOCC2)nc2c1ncn2CC1CC1 [Compound 64] | 1000 to 5000 nM | > 5000 nM
6 | O=c1[nH]c2ccc(-c3nc(N4CCOCC4)nc4c3ncn4CC3CC3)cc2[nH]1 [Compound 65] | > 5000 nM | > 5000 nM
7 | CC(C)Cn1cnc2c(-c3cccc4[nH]ccc34)nc(N3CCOCC3)nc21 [Compound 66] | < 1000 nM | < 1000 nM
8 | COCC(C)n1cnc2c(-c3cccc4[nH]ccc34)nc(N3CCOCC3)nc21 (centres unmarked) [Compound 67] | < 1000 nM | < 1000 nM
9 | COCC(C)n1cnc2c(-c3cccc(O)c3)nc(N3CCOCC3)nc21 (centres unmarked) [Compound 68] | < 1000 nM | < 1000 nM
10 | CCC(C)n1cnc2c(-c3cccc4[nH]ccc34)nc(N3CCOCC3)nc21 (centres unmarked) [Compound 69] | < 1000 nM | < 1000 nM
11 | c1cc(-c2nc(N3CCOCC3)nc3c2ncn3CCC2OCCCO2)c2cc[nH]c2c1 [Compound 70] | < 1000 nM | 1000 to 5000 nM
12 | Oc1cccc(-c2nc(N3CCOCC3)nc3c2ncn3CC2CCCCC2)c1 [Compound 72] | 1000 to 5000 nM | < 1000 nM
13 | c1cc(-c2nc(N3CCOCC3)nc3c2ncn3CC2CCCCC2)c2cc[nH]c2c1 [Compound 73] | < 1000 nM | 1000 to 5000 nM
14 | O=C(Cn1cnc2c(-c3cccc(O)c3)nc(N3CCOCC3)nc21)N1CCCC1 [Compound 75, 2-(6-(3-hydroxyphenyl)-2-morpholino-9H-purin-9-yl)-1-(pyrrolidin-1-yl)ethanone] | < 1000 nM | < 1000 nM
15 | CN1CCN(C(=O)Cn2cnc3c(-c4cccc(O)c4)nc(N4CCOCC4)nc32)CC1 [Compound 76] | < 1000 nM | 1000 to 5000 nM
16 | CC(c1ccccc1)n1cnc2c(-c3cccc4[nH]ccc34)nc(N3CCOCC3)nc21 (centres unmarked) [Compound 77] | > 5000 nM | < 1000 nM
17 | COCCn1cnc2c(-c3cccc4[nH]ccc34)nc(N3CCOCC3)nc21 [Compound 79] | < 1000 nM | 1000 to 5000 nM
18 | N#CCn1cnc2c(-c3cccc4[nH]ccc34)nc(N3CCOCC3)nc21 [Compound 80] | < 1000 nM | 1000 to 5000 nM
19 | CC1CN(c2nc(-c3cccc4[nH]ccc34)c3ncn(CC#N)c3n2)CC(C)O1 (centres unmarked) [Compound 81] | > 5000 nM | > 5000 nM
20 | O=C(Cn1cnc2c(-c3cccc(O)c3)nc(N3CCOCC3)nc21)N1CCOCC1 [Compound 82] | < 1000 nM | 1000 to 5000 nM
21 | CC(C)NC(=O)Cn1cnc2c(-c3cccc(O)c3)nc(N3CCOCC3)nc21 [Compound 83] | < 1000 nM | 1000 to 5000 nM
22 | O=C(Cn1cnc2c(-c3cccc(O)c3)nc(N3CCOCC3)nc21)NC1CC1 [Compound 84] | < 1000 nM | 1000 to 5000 nM
23 | c1cc(-c2nc(N3CCOCC3)nc3c2ncn3C2CCNCC2)c2cc[nH]c2c1 [Compound 87] | < 1000 nM | 1000 to 5000 nM
24 | CCCCN1CCC(n2cnc3c(-c4cccc(O)c4)nc(N4CCOCC4)nc32)CC1 [Compound 88] | < 1000 nM | < 1000 nM
25 | O=C(Cn1cnc2c(-c3cccc(O)c3)nc(N3CCOCC3)nc21)Nc1ccccc1 [Compound 89] | < 1000 nM | < 1000 nM
26 | CCC(C)n1cnc2c(-c3cccc(O)c3)nc(N3CCOCC3)nc21 (centres unmarked) [Compound 90] | < 1000 nM | < 1000 nM

Row | Structure (SMILES) | IC50 (PI3K p110α/p85) | IC50 (mTOR)
27 | CC(C1CC1)n1cnc2c(-c3cccc4[nH]ccc34)nc(N3CCOCC3)nc21 (centres unmarked) [Compound 91] | < 1000 nM | < 1000 nM
28 | CC(C1CC1)n1cnc2c(-c3cccc(O)c3)nc(N3CCOCC3)nc21 (centres unmarked) [Compound 92] | < 1000 nM | < 1000 nM
29 | CCCC(=O)N1CCC(n2cnc3c(-c4cccc5[nH]ccc45)nc(N4CCOCC4)nc32)CC1 [Compound 93] | < 1000 nM | < 1000 nM
30 | Oc1cccc(-c2nc(N3CCOCC3)nc3c2ncn3CCN2CCCC2)c1 [Compound 94, 3-(2-morpholino-9-(2(-pyrrolidin-1-yl)ethyl)-9H-purin-6yl)phenol] | < 1000 nM | 1000 to 5000 nM
31 | O=C(CCN1CCCCC1)N1CCC(n2cnc3c(-c4cccc5[nH]ccc45)nc(N4CCOCC4)nc32)CC1 [Compound 95] | < 1000 nM | < 1000 nM
32 | CC(C)(C)CC(=O)N1CCC(n2cnc3c(-c4cccc5[nH]ccc45)nc(N4CCOCC4)nc32)CC1 [Compound 96] | < 1000 nM | < 1000 nM
33 | Oc1cccc(-c2nc(N3CCOCC3)nc3c2ncn3C2CCOC2)c1 (centres unmarked) [Compound 97] | < 1000 nM | < 1000 nM
34 | CCN(CC)CCn1cnc2c(-c3cccc(O)c3)nc(N3CCOCC3)nc21 [Compound 98] | < 1000 nM | > 5000 nM
35 | CC(C)n1cnc2c(-c3cccc4[nH]ccc34)nc(N3CCOCC3)nc21 [Compound 99] | < 1000 nM | < 1000 nM
36 | CCC(C#N)n1cnc2c(-c3cccc4[nH]ccc34)nc(N3CCOCC3)nc21 (centres unmarked) [Compound 102] | < 1000 nM | 1000 to 5000 nM
37 | Cc1ccc(C(=O)N2CCC(n3cnc4c(-c5cccc6[nH]ccc56)nc(N5CCOCC5)nc43)CC2)s1 [Compound 104] | < 1000 nM | < 1000 nM
38 | O=C(Cc1cccnc1)N1CCC(n2cnc3c(-c4cccc5[nH]ccc45)nc(N4CCOCC4)nc32)CC1 [Compound 105] | < 1000 nM | < 1000 nM
39 | O=C(Nc1ccc(Cl)cc1)N1CCC(n2cnc3c(-c4cccc5[nH]ccc45)nc(N4CCOCC4)nc32)CC1 [Compound 106] | < 1000 nM | < 1000 nM
40 | CS(=O)(=O)N1CCN(C(=O)Cn2cnc3c(-c4cccc(O)c4)nc(N4CCOCC4)nc32)CC1 [Compound 107] | < 1000 nM | < 1000 nM
41 | CS(=O)(=O)N1CCN(CCn2cnc3c(-c4cccc(O)c4)nc(N4CCOCC4)nc32)CC1 [Compound 108] | < 1000 nM | < 1000 nM
42 | CCC(C)n1cnc2c(-c3cccc4[nH]ncc34)nc(N3CCOCC3)nc21 (centres unmarked) [Compound 109] | < 1000 nM | < 1000 nM
43 | c1cc(-c2nc(N3CCOCC3)nc3c2ncn3C2CCOC2)c2cc[nH]c2c1 (centres unmarked) [Compound 110] | < 1000 nM | < 1000 nM
44 | CS(=O)(=O)N1CCC(n2cnc3c(-c4cccc5[nH]ccc45)nc(N4CCOCC4)nc32)CC1 [Compound 111] | < 1000 nM | < 1000 nM
45 | CCc1nc2c(-c3cccc(O)c3)nc(N3CCOCC3)nc2n1C(C)CC (centres unmarked) [Compound 112, 3-(9-sec-Butyl-8-ethyl-2-morpholin-4-yl-9H-purin-6-yl)-phenol] | < 1000 nM | < 1000 nM
46 | CCC(C)n1c(C)nc2c(-c3cccc(O)c3)nc(N3CCOCC3)nc21 (centres unmarked) [Compound 113] | < 1000 nM | < 1000 nM
47 | CCC(C)n1c(Br)nc2c(-c3cccc(O)c3)nc(N3CCOCC3)nc21 (centres unmarked) [Compound 114] | < 1000 nM | < 1000 nM
48 | Oc1cccc(-c2nc(N3CCOCC3)nc3c2nc(-c2cccs2)n3C2CCCCO2)c1 (centres unmarked) [Compound 116] | > 5000 nM | > 5000 nM
49 | Oc1cccc(-c2nc(N3CCOCC3)nc3[nH]c(-c4cccs4)nc23)c1 [Compound 117] | < 1000 nM | > 5000 nM
50 | CCSc1nc2c(-c3cccc(O)c3)nc(N3CCOCC3)nc2n1C(C)CC (centres unmarked) [Compound 119] | < 1000 nM | < 1000 nM
51 | CCCCNc1nc2c(-c3cccc(O)c3)nc(N3CCOCC3)nc2n1C(C)CC (centres unmarked) [Compound 120] | < 1000 nM | < 1000 nM
52 | CCC(C)n1c(N(C)C)nc2c(-c3cccc(O)c3)nc(N3CCOCC3)nc21 (centres unmarked) [Compound 121] | < 1000 nM | < 1000 nM

Reference: patent US20110009403A1, “2-MORPHOLINYLPURINES AS INHIBITORS OF PI3K” (S*BIO Pte Ltd., priority 2007, published 2011)
